Measurements from patent publication US20100168105A1, “Spirocyclopropyl Piperidine Derivatives” (priority 2007, published 2010).

Experiments:
[1] = molecular target: human histamine H3 receptors (full-length H3, isoform 445) (Homo sapiens, UniProt Q9Y5N1); details: hH3 binding IC50 (nM), inhibition of 1.4 nM [3H]-N-α-methylhistamine binding to CHO-K1 membranes expressing human H3, SPA, 1.5 hr;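 further: scintillation counts read after the 1.5 hr incubation at room temperature with shaking, Imetit serving as reference control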
Protocol: Histamine H3 SPA with the Agonist Radioligand [^3H]—N-α-methylhistamine
Reproducibility of the assay is such that IC50 curves can be generated in singlicate. Single poke (SP) testing was done in triplicate.
Membranes, prepared from CHO-K1 cells stably expressing the human histamine H3 receptor, were obtained from ACS.
Tested formula I compounds were provided as solubilized samples in neat DMSO. Serial dilutions were performed in DMSO.
Plates were read on a Perkin Elmer TopCount. CPM data were used to analyze unless DPM data generated by a quench curve were required.
• 1. 1 mg/ml BSA was added to assay buffer (AB) on day of assay. • 2. […] Buffer volume was split between beads and membranes to allow for polytroning of membranes prior to addition to beads. • a. […] Waited a minimum of 15 minutes prior to adding membranes (See b. below.). • b. […] The homogenized membrane mixture was combined with the beads and a minimum of 30 minutes was waited prior to dispensing to plate. • 3. Formula I compounds: For Single Poke, 2 μl 1 mM of a compound in accordance with formula I was dispensed to Optiplates (triplicate plates) for final concentration of 10 μM. […] Imetit (see below) was used as a control. • 4. […] 5 μl samples were calculated in quadruplicate on the β counter. […] (For IC50s, use final concentration on calculation tab of ABase template.)
• 1. […] 2 μl of the formula I compound dilution was mixed and then transferred into assay plates. DMSO was removed and 2 μl of 100 μM Imetit was added to the wells. • 3. 178 μl bead/membrane mixture was dispensed into the assay plate. • 4. 20 μl [^3H]-NAMH was added with Rapid Plate. The assay plate was sealed and incubated for 1.5 hr on RT shaker at speed ˜6.5. • 5. The assay plate was subsequently centrifuged at 1000 rpm for 10 minutes. • 6. The count was performed on TopCount using one of the 3H SPA H3 Quench programs.
The DPM data was analyzed when tSIS was less than that associated with 70% of full scale on the quench curve (tSIS<25%). Otherwise, CPM data was used.

[2] = molecular target: T1, human Histamine H3 receptor (hH3R) (Homo sapiens, UniProt Q9Y5N1); assay: Guanosine 5'-O-(3-[35S]thio)triphosphate [GTPγS] Binding Assay; type: biochemical; details: antagonist activity; membranes from CHO cells expressing hH3R, (R)-α-methyl histamine 30 nM, [35S]GTPγS 0.2 nM, 90 minutes
T1 construct: expressed in transfected cells; host or cells: CHO cells (membranes)
Protocol: Guanosine 5′-O-(3-[^35]thio)triphosphate [GTPγS] Binding Assay
The GTPγS binding assay can be used to investigate antagonist properties of compounds in CHO cells (Chinese Hamster Ovary) transfected with human Histamine H3 receptor (hH3R). […] To determine antagonist activity, (R)-α-methyl histamine (30 nM) is added in 96 well SPA plate with [^35S]GTPγS (0.2 nM) and various concentration of H3R antagonists. The GTPγS binding assay is started with addition of the mixture membrane/saponine/GDP and incubated for 90 minutes at room temperature. The amount of bound [^35S]GTPγS is determined by using the MicroBeta Trilux counter (PerkinElmer). The percentage of [^35S]GTPγS bound in each sample is calculated as a percentage of that bound control sample incubated in absence of H3 antagonist. Duplicate determinations are obtained for each concentration, and the data are analyzed using ExcelFit4 to obtain the IC50.

T1 sequence (Q9Y5N1 whole entry): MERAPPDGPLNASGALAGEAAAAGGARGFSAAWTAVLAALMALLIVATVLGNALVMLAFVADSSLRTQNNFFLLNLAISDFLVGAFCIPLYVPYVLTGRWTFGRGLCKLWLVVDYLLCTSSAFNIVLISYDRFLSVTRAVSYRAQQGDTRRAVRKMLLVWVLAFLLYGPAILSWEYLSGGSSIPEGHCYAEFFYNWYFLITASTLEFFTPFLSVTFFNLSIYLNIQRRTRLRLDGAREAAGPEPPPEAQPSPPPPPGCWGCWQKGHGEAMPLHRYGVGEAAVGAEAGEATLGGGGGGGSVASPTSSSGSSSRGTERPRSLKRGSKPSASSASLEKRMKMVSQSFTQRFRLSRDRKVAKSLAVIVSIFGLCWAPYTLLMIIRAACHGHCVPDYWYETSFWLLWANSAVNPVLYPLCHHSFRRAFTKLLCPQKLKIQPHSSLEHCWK
human histamine H3 receptors (full-length H3, isoform 445), sequence (Q9Y5N1 whole entry, canonical isoform): as the sequence (Q9Y5N1 whole entry) above

| SMILES | IC50 [1] [nM] | IC50 [2] [µM] |
| --- | --- | --- |
| O=C(C1CC12CCN(C1CCCSC1)CC2)N1CCN(C2CCC2)CC1 (stereo not drawn) [Example 30, (4-Cyclobutyl-piperazin-1-yl)-[6-(tetrahydro-thiopyran-3-yl)-6-aza-spiro[2.5]oct-1-yl]-methanone] | 10.1 | 0.0143 |
| CN1CCC(N2CCC3(CC2)CC3C(=O)N2CCN(C3CCCCC3)CC2)CC1 (stereo not drawn) [Example 20, (4-Cyclohexyl-piperazin-1-yl)-[6-(1-methyl-piperidin-4-yl)-6-aza-spiro[2.5]oct-1-yl]-methanone] | 97.2 | 0.0225 |
| O=C(C1CC12CCN(C1CCCCC1)CC2)N1CCN(C2CCC2)CC1 (single isomer, unassigned) [Example 26, (4-Cyclobutyl-piperazin-1-yl)-(6-cyclohexyl-6-aza-spiro[2.5]oct-1-yl)-methanone] | 1.35 | 0.00655 |
| CC(C)N1CCN(C(=O)C2CC23CCN(C2CCOCC2)CC3)CC1 (single isomer, unassigned) [Example 28, (4-Isopropyl-piperazin-1-yl)-[6-(tetrahydro-pyran-4-yl)-6-aza-spiro[2.5]oct-1-yl]-methanone] | 2.66 | 0.0132 |
| O=C(C1CC12CCN(C1CCOCC1)CC2)N1CCN(C2CC2)CC1 (stereo not drawn) [Example 9, (4-Cyclopropylpiperazin-1-yl)(6-(tetrahydro-2H-pyran-4-yl)-6-azaspiro[2.5]octan-1-yl)methanone] | 33.5 | 0.019 |
| O=C(C1CC12CCN(C1CCOCC1)CC2)N1CCN(c2ccncc2)CC1 (stereo not drawn) [Example 14, (4-Pyridin-4-yl-piperazin-1-yl)-[6-(tetrahydro-pyran-4-yl)-6-aza-spiro[2.5]oct-1-yl]-methanone] | 26.1 | 0.139 |
| O=C(C1CC12CCN(C1CCCOC1)CC2)N1CCN(C2CCC2)CC1 (stereo not drawn) [Example 32, (4-Cyclobutyl-piperazin-1-yl)-[6-(tetrahydro-pyran-3-yl)-6-aza-spiro[2.5]oct-1-yl]-methanone] | 15 | 0.017 |
| O=C(C1CC12CCN(c1ccncc1)CC2)N1CCN(C2CCCCC2)CC1 (stereo not drawn) [Example 35, (4-Cyclohexyl-piperazin-1-yl)-(6-pyridin-4-yl-6-aza-spiro[2.5]oct-1-yl)-methanone] | 165 | 0.0853 |
| CC(C)N1CCN(C(=O)C2CC23CCN(C2CCOCC2)CC3)CC1 (single isomer, unassigned) [Example 29, (4-Isopropyl-piperazin-1-yl)-[6-(tetrahydro-pyran-4-yl)-6-aza-spiro[2.5]oct-1-yl]-methanone] | 50.9 | 0.0875 |
| O=C(C1CC12CCN(CCc1ccccc1)CC2)N1CCN(C2CCCCC2)CC1 (stereo not drawn) [Example 16, (4-Cyclohexyl-piperazin-1-yl)-(6-phenethyl-6-aza-spiro[2.5]oct-1-yl)-methanone] | 65.2 | 0.0165 |
| O=C(C1CC12CCN(C1CCCCC1)CC2)N1CCN(C2CCC2)CC1 (stereo not drawn) [Example 31, (4-Cyclobutyl-piperazin-1-yl)-(6-cyclohexyl-6-aza-spiro[2.5]oct-1-yl)-methanone] | 11.3 | 0.0135 |
| O=C(C1CC12CCN(C1CCOCC1)CC2)N1CCN(C2CCCCCC2)CC1 (stereo not drawn) [Example 11, (4-Cycloheptylpiperazin-1-yl)(6-(tetrahydro-2H-pyran-4-yl)-6-azaspiro[2.5]octan-1-yl)methanone] | 196 | 0.074 |
| O=C(C1CC12CCN(C1CCCCC1)CC2)N1CCN(C2CCC2)CC1 (single isomer, unassigned) [Example 27, (4-Cyclobutyl-piperazin-1-yl)-(6-cyclohexyl-6-aza-spiro[2.5]oct-1-yl)-methanone] | 7.68 | 0.044 |
| O=C(C1CC12CCN(CCc1ccccc1)CC2)N1CCN(C2CCCCC2)CC1 (single isomer, unassigned) [Example 18, (4-Cyclohexyl-piperazin-1-yl)-(6-phenethyl-6-aza-spiro[2.5]oct-1-yl)-methanone] | 407 | 0.125 |
| CN1CCN(C(=O)C2CC23CCN(C2CCOCC2)CC3)CC1 (stereo not drawn) [Example 7, (4-Methyl-piperazin-1-yl)-[6-(tetrahydro-pyran-4-yl)-6-aza-spiro[2.5]oct-1-yl]-methasone] | 1400 | 1.2 |
